Results taken from PubChem BioAssay (NCI).
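These data come from cells grown in 96-well plates and exposed to compound for 48 hours at five concentrations. GI50 = concentration required for 50% inhibition of growth. TGI denotes the concentration required for complete inhibition of growth.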

Tests used:
Assay in all cases: NCI tumour cell line growth inhibition, 48 h; in the data active = GI50 below about 0.43 µM; inactive = the rest
OVCAR-5 ovarian = system: OVCAR-5 ovarian
HCT-116 colon = system: HCT-116 colon
ACHN renal = system: ACHN renal
IGROV1 ovarian = system: IGROV1 ovarian
CCRF-CEM leukemia = system: CCRF-CEM leukemia
NCI-H226 lung = system: NCI-H226 lung
CAKI-1 renal = system: CAKI-1 renal
TK-10 renal = system: TK-10 renal
HT29 colon = system: HT29 colon
HOP-92 NSCLC = system: HOP-92 NSCLC
LOX IMVI melanoma = system: LOX IMVI melanoma
MALME-3M melanoma = system: MALME-3M melanoma
SW-620 colon = system: SW-620 colon
K-562 leukemia = system: K-562 leukemia
SK-MEL-28 melanoma = system: SK-MEL-28 melanoma
HCT-15 colon = system: HCT-15 colon
HS 578T breast = system: HS 578T breast
NCI-H23 lung = system: NCI-H23 lung
SF-268 CNS = system: SF-268 CNS
EKVX NSCLC = system: EKVX NSCLC
RXF 393 renal = system: RXF 393 renal
RPMI-8226 leukemia = system: RPMI-8226 leukemia
BT-549 breast = system: BT-549 breast
SNB-19 CNS = system: SNB-19 CNS
MDA-MB-435 = system: MDA-MB-435
DU-145 prostate = system: DU-145 prostate
NCI-H522 lung = system: NCI-H522 lung
UACC-257 melanoma = system: UACC-257 melanoma
KM12 colon = system: KM12 colon
NCI-H460 lung = system: NCI-H460 lung
SF-539 CNS = system: SF-539 CNS
MCF7 breast = system: MCF7 breast
UACC-62 melanoma = system: UACC-62 melanoma
SK-MEL-5 melanoma = system: SK-MEL-5 melanoma
U251 CNS = system: U251 CNS
HCC-2998 colon = system: HCC-2998 colon
PC-3 prostate = system: PC-3 prostate
A549 NSCLC = system: A549 NSCLC
SK-OV-3 ovarian = system: SK-OV-3 ovarian
A498 renal = system: A498 renal
SF-295 CNS = system: SF-295 CNS
MDA-MB-468 breast = system: MDA-MB-468 breast
OVCAR-3 ovarian = system: OVCAR-3 ovarian
M14 melanoma = system: M14 melanoma
OVCAR-4 ovarian = system: OVCAR-4 ovarian
SR leukemia = system: SR leukemia
MOLT-4 leukemia = system: MOLT-4 leukemia
NCI/ADR-RES ovarian = system: NCI/ADR-RES ovarian
HL-60(TB) leukemia = system: HL-60(TB) leukemia
SN12C renal = system: SN12C renal
786-0 renal = system: 786-0 renal
HOP-62 NSCLC = system: HOP-62 NSCLC
T-47D breast = system: T-47D breast
OVCAR-8 ovarian = system: OVCAR-8 ovarian
COLO 205 colon = system: COLO 205 colon

COc1ccc(C(=O)Nc2ccc(-c3ccc4c(c3)NC(=O)/C4=C\c3ccc[nH]3)cc2)cc1
16.3 µM: TGI (NCI/ADR-RES ovarian)
50.8 µM: TGI (RXF 393 renal)
inactive: GI50 (OVCAR-5 ovarian) 30.8 µM | GI50 (HCT-116 colon) 15.7 µM | GI50 (ACHN renal) 48.2 µM | GI50 (IGROV1 ovarian) 37.6 µM | GI50 (CCRF-CEM leukemia) > 100 µM | GI50 (NCI-H226 lung) 4.08 µM | GI50 (CAKI-1 renal) > 100 µM | GI50 (TK-10 renal) 19 µM | GI50 (HT29 colon) 4.23 µM | GI50 (HOP-92 NSCLC) 42.8 µM | GI50 (LOX IMVI melanoma) 7.29 µM | GI50 (MALME-3M melanoma) 13.4 µM | GI50 (SW-620 colon) 8.39 µM | GI50 (K-562 leukemia) 25.2 µM | GI50 (SK-MEL-28 melanoma) 79.6 µM | GI50 (HCT-15 colon) 23 µM | GI50 (HS 578T breast) 5.82 µM | GI50 (NCI-H23 lung) 12.4 µM | GI50 (SF-268 CNS) 28.7 µM | GI50 (EKVX NSCLC) 2.46 µM | GI50 (RXF 393 renal) 8.74 µM | GI50 (RPMI-8226 leukemia) 38.4 µM | GI50 (BT-549 breast) 33.4 µM | GI50 (SNB-19 CNS) 30.9 µM | GI50 (MDA-MB-435) > 100 µM | GI50 (DU-145 prostate) 8.3 µM | GI50 (NCI-H522 lung) 17 µM | GI50 (UACC-257 melanoma) 9.07 µM | GI50 (KM12 colon) 53.7 µM | GI50 (NCI-H460 lung) 12.7 µM | GI50 (SF-539 CNS) > 100 µM | GI50 (UACC-62 melanoma) 20.5 µM | GI50 (SK-MEL-5 melanoma) > 100 µM | GI50 (U251 CNS) 5.29 µM | GI50 (HCC-2998 colon) 9.38 µM | GI50 (PC-3 prostate) 27.7 µM | GI50 (A549 NSCLC) 15.2 µM | GI50 (SK-OV-3 ovarian) > 100 µM | GI50 (A498 renal) > 100 µM | GI50 (SF-295 CNS) 13.9 µM | GI50 (OVCAR-3 ovarian) 47.1 µM | GI50 (M14 melanoma) 7.15 µM | GI50 (OVCAR-4 ovarian) 3.55 µM | GI50 (SR leukemia) 13.4 µM | GI50 (MOLT-4 leukemia) 19.4 µM | GI50 (NCI/ADR-RES ovarian) 3.84 µM | GI50 (HL-60(TB) leukemia) 32.4 µM | GI50 (SN12C renal) 68.9 µM | GI50 (786-0 renal) 21.8 µM | GI50 (HOP-62 NSCLC) 3.76 µM | GI50 (T-47D breast) 3.17 µM | GI50 (OVCAR-8 ovarian) 2.95 µM | GI50 (COLO 205 colon) 3.36 µM
49.2 µM: TGI (HS 578T breast)
10.3 µM: TGI (OVCAR-8 ovarian)
12.1 µM: TGI (COLO 205 colon)
active: GI50 (MCF7 breast) 0.372 µM | GI50 (MDA-MB-468 breast) 0.243 µM
18.9 µM: TGI (U251 CNS)
71.9 µM: TGI (786-0 renal)
19.8 µM: TGI (HT29 colon)
13.5 µM: TGI (HOP-62 NSCLC)
41.2 µM: TGI (T-47D breast)
91.3 µM: TGI (NCI-H522 lung)
> 100 µM: TGI (OVCAR-5 ovarian) | TGI (HCT-116 colon) | TGI (ACHN renal) | TGI (IGROV1 ovarian) | TGI (CCRF-CEM leukemia) | TGI (NCI-H226 lung) | TGI (CAKI-1 renal) | TGI (TK-10 renal) | TGI (HOP-92 NSCLC) | TGI (LOX IMVI melanoma) | TGI (MALME-3M melanoma) | TGI (SW-620 colon) | TGI (K-562 leukemia) | TGI (SK-MEL-28 melanoma) | TGI (HCT-15 colon) | TGI (NCI-H23 lung) | TGI (SF-268 CNS) | TGI (EKVX NSCLC) | TGI (RPMI-8226 leukemia) | TGI (BT-549 breast) | TGI (SNB-19 CNS) | TGI (MDA-MB-435) | TGI (DU-145 prostate) | TGI (UACC-257 melanoma) | TGI (KM12 colon) | TGI (NCI-H460 lung) | TGI (SF-539 CNS) | TGI (MCF7 breast) | TGI (UACC-62 melanoma) | TGI (SK-MEL-5 melanoma) | TGI (HCC-2998 colon) | TGI (PC-3 prostate) | TGI (A549 NSCLC) | TGI (SK-OV-3 ovarian) | TGI (A498 renal) | TGI (OVCAR-3 ovarian) | TGI (M14 melanoma) | TGI (SR leukemia) | TGI (MOLT-4 leukemia) | TGI (HL-60(TB) leukemia) | TGI (SN12C renal)
1.71 µM: TGI (MDA-MB-468 breast)
62.4 µM: TGI (SF-295 CNS)
23.2 µM: TGI (OVCAR-4 ovarian)
